Source: patent US10202378B2, “Therapeutic compounds and uses thereof” (GENENTECH, INC., priority 2015, dated 2019)

What was measured:
TAF1-BD1 = TAF1-BD1 (Homo sapiens, UniProt P21675); experiment: TAF1-BD1 TR-FRET Binding Assay; conditions: read-out: TAF1-BD1 HTRF IC50
Protocol: IC50 Measurements for Inhibitors Using TAF1-BD1 TR-FRET Binding Assay
His/Flag epitope tagged TAF1-BD11381-1497 was cloned, expressed, and purified to homogeneity. TAF1-BD binding and inhibition was assessed by monitoring the engagement of a biotinylated small molecule compound 1000 with the target using the TR-FRET assay technology (Perkin-Elmer). Specifically, in a 384 well ProxiPlate, TAF1-BDI (0.08 uM final) in 50 mM HEPES (pH 7.5; final), 50 mM NaCl (final), 1 mM TCEP (final), 0.1 mg/mL BSA (final), and 0.069 mM Brij-35 (final) was added either in the presence of DMSO (final 0.2% DMSO) or compound dilution series in DMSO. After a 10 minute incubation at room temperature, biotin-ligand (0.08 uM final) was added. After 10 minutes incubation at room temperature, a mixture Eu-W1024 Anti-6×His antibody (Perkin Elmer ADO 110) and SureLight™ Streptavidin-Allophycocyanin (SA-APC, Perkin Elmer CR130-100) were added to final concentrations of 0.2 nM antibody and 0.05 uM SA-APC, respectively. After forty minutes of equilibration at room temperature, the plates were read on an Envision instrument and IC50s calculated using a four parameter logistic model (XLFIT).

TAF1-BD2 = TAF1-BD2 (Homo sapiens, UniProt P21675); experiment: TAF1-BD2 TR-FRET Binding Assay; conditions: read-out: TAF1-BD2 HTRF IC50
Protocol: IC50 Measurements for Inhibitors Using TAF1-BD2 TR-FRET Binding Assay
His/Flag epitope tagged TAF1-BD21504-1635 was cloned, expressed, and purified to homogeneity. TAF1-BD2 binding and inhibition was assessed by monitoring the engagement of a biotinylated small molecule compound 1000 with the target using the TR-FRET assay technology (Perkin-Elmer). Specifically, in a 384 well ProxiPlate, TAF1-BD2 (0.012 uM final) in 50 mM HEPES (pH 7.5; final), 50 mM NaCl (final), 1 mM TCEP (final), 0.1 mg/mL BSA (final), and 0.069 mM Brij-35 (final) was added either in the presence of DMSO (final 0.2% DMSO) or compound dilution series in DMSO. After a 10 minute incubation at room temperature, biotin-ligand (0.04 uM final) was added. After 10 minutes incubation at room temperature, a mixture Eu-W1024 Anti-6×His antibody (Perkin Elmer AD0110) and SureLight™ Streptavidin-Allophycocyanin (SA-APC, Perkin Elmer CR130-100) were added to a final concentration of 0.2 nM antibody and 0.025 uM SA-APC, respectively. After forty minutes of equilibration at room temperature, the plates were read on an Envision instrument and IC50s calculated using a four parameter logistic model (XLFIT).

Row | SMILES | IC50 (TAF1-BD1) [nM] | IC50 (TAF1-BD2) [nM]
1 | CCOC(=O)c1c(C)[nH]c2c(=O)n(C)cc(C#CC3(O)CCNCC3)c12 [Example 12, ethyl 4-[2-(4-hydroxy-4-piperidyl)ethynyl]-2,6-dimethyl-7-oxo-1H-pyrrolo[2,3-c]pyridine-3-carboxylate] | 757 | 429
2 | Cc1[nH]c2c(=O)n(C)cc(C#CC(O)(c3ccccc3)C(F)(F)F)c2c1C(=O)OCc1ccccc1C#N (centres unmarked) [Example 107, (2-cyanophenyl)methyl 2,6-dimethyl-7-oxo-4-(4,4,4-trifluoro-3-hydroxy-3-phenyl-but-1-ynyl)-1H-pyrrolo[2,3-c]pyridine-3-carboxylate] | 1630 | 344
3 | Cc1[nH]c2c(=O)n(C)cc(C#CC(C)(C)O)c2c1C1=NC(C(C)C)CO1 (centres unmarked) [Example 202, 4-(3-hydroxy-3-methyl-but-1-ynyl)-3-(4-isopropyl-4,5-dihydrooxazol-2-yl)-2,6-dimethyl-1H-pyrrolo[2,3-c]pyridin-7-one] | 1230 | 176
4 | CCOC(=O)c1c(C)[nH]c2c(=O)n(C)cc(C#CC(O)(c3ccccc3)C(F)F)c12 (centres unmarked) [Example 89, ethyl 4-(4,4-difluoro-3-hydroxy-3-phenyl-but-1-ynyl)-2,6-dimethyl-7-oxo-1H-pyrrolo[2,3-c]pyridine-3-carboxylate] | 278 | 32.9
5 | CCOC(=O)c1c(C)[nH]c2c(=O)n(C)cc(C#CC(C)(O)c3cccnc3)c12 (centres unmarked) [Example 28, ethyl 4-[3-hydroxy-3-(3-pyridyl)but-1-ynyl]-2,6-dimethyl-7-oxo-1H-pyrrolo[2,3-c]pyridine-3-carboxylate] | 234 | 52.5
6 | CCOC(=O)c1c(C)[nH]c2c(=O)n(C)cc(C#CC(O)(c3cccc(Oc4ccccc4)c3)C(F)(F)F)c12 (centres unmarked) [Example 90, ethyl 2,6-dimethyl-7-oxo-4-[4,4,4-trifluoro-3-hydroxy-3-(3-phenoxyphenyl)but-1-ynyl]-1H-pyrrolo[2,3-c]pyridine-3-carboxylate] | 2280 | 699
7 | CCOC(=O)c1c(C)[nH]c2c(=O)n(C)cc(C#CC(O)(c3ccccc3)C(F)F)c12 (single isomer, unassigned) [Example 93a, ethyl 4-(4,4-difluoro-3-hydroxy-3-phenyl-but-1-ynyl)-2,6-dimethyl-7-oxo-1H-pyrrolo[2,3-c]pyridine-3-carboxylate] | 599 | 65.5
8 | CCOC(=O)c1c(C)[nH]c2c(=O)n(C)cc(C#Cc3ccccc3F)c12 [Example 59, ethyl 4-[2-(2-fluorophenyl)ethynyl]-2,6-dimethyl-7-oxo-1H-pyrrolo[2,3-c]pyridine-3-carboxylate] | > 2220 | 56.2
9 | Cc1[nH]c2c(=O)n(C)cc(C#CC(C)(O)c3ccccc3)c2c1C(=O)OC(C)(C)C (centres unmarked) [Example 162, tert-butyl 4-(3-hydroxy-3-phenyl-but-1-ynyl)-2,6-dimethyl-7-oxo-1H-pyrrolo[2,3-c]pyridine-3-carboxylate] | 318 | 54.4
10 | C=CCCn1cc(C#CC(C)(O)CC#N)c2c(C(=O)OCC)c(C)[nH]c2c1=O (centres unmarked) [Example 72, ethyl 6-but-3-enyl-4-(4-cyano-3-hydroxy-3-methyl-but-1-ynyl)-2-methyl-7-oxo-1H-pyrrolo[2,3-c]pyridine-3-carboxylate] | > 20000 | 181
11 | Cc1[nH]c2c(=O)n(C)cc(C#CC(O)(c3ccccc3)C(F)(F)F)c2c1-c1nnc(CCN(C)C)o1 (centres unmarked) [Example 178, 3-[5-[2-(dimethylamino)ethyl]-1,3,4-oxadiazol-2-yl]-2,6-dimethyl-4-(4,4,4-trifluoro-3-hydroxy-3-phenyl-but-1-ynyl)-1H-pyrrolo[2,3-c]pyridin-7-one] | 725 | 88.1
12 | Cc1[nH]c2c(=O)n(C)cc(C#CC(C)(C)O)c2c1C(=O)O [Example 200, 4-(3-hydroxy-3-methyl-but-1-ynyl)-2,6-dimethyl-7-oxo-1H-pyrrolo[2,3-c]pyridine-3-carboxylic acid] | 20000 | 13700
13 | CCOC(=O)c1c(C)[nH]c2c(=O)n(C)cc(C#CC3(O)CC3)c12 [Example 18, ethyl 4-[2-(1-hydroxycyclopropyl)ethynyl]-2,6-dimethyl-7-oxo-1H-pyrrolo[2,3-c]pyridine-3-carboxylate] | 632 | 85.4
14 | CCOC(=O)c1c(C)[nH]c2c(=O)n(C)cc(C#CC(O)(c3cccc(CO)c3)C(F)(F)F)c12 (centres unmarked) [Example 43, ethyl 2,6-dimethyl-7-oxo-4-[4,4,4-trifluoro-3-hydroxy-3-[3-(hydroxymethyl)phenyl]but-1-ynyl]-1H-pyrrolo[2,3-c]pyridine-3-carboxylate] | 257 | 35.5
15 | CCOC(=O)c1c(C)[nH]c2c(=O)n(C)cc(C#CC(C)(C)C(=O)N(C)C)c12 [Example 36, ethyl 4-[4-(dimethylamino)-3,3-dimethyl-4-oxo-but-1-ynyl]-2,6-dimethyl-7-oxo-1H-pyrrolo[2,3-c]pyridine-3-carboxylate] | 1310 | 375
16 | CCOC(=O)c1c(C)[nH]c2c(=O)n(C)cc(C#CC(C)(C)OCc3ccccc3)c12 [Example 25, ethyl 4-(3-benzyloxy-3-methyl-but-1-ynyl)-2,6-dimethyl-7-oxo-1H-pyrrolo[2,3-c]pyridine-3-carboxylate] | 848 | 373
17 | C=CCCn1cc(C#C[C@@](C)(O)c2cc(C)on2)c2c(C(=O)OCc3ccccc3C)c(C)[nH]c2c1=O [Example 123, o-tolylmethyl 6-but-3-enyl-4-[(3R)-3-hydroxy-3-(5-methylisoxazol-3-yl)but-1-ynyl]-2-methyl-7-oxo-1H-pyrrolo[2,3-c]pyridine-3-carboxylate] | > 20000 | 243
18 | CCOC(=O)c1c(C)[nH]c2c(=O)n(C)cc(C#CC(C)(C)OC)c12 [Example 26, ethyl 4-(3-methoxy-3-methyl-but-1-ynyl)-2,6-dimethyl-7-oxo-1H-pyrrolo[2,3-c]pyridine-3-carboxylate] | 503 | 284
19 | Cc1[nH]c2c(=O)n(C)cc(C#CC(C)(O)CC#N)c2c1C(=O)OC(C)C (centres unmarked) [Example 156, isopropyl 4-(4-cyano-3-hydroxy-3-methyl-but-1-ynyl)-2,6-dimethyl-7-oxo-1H-pyrrolo[2,3-c]pyridine-3-carboxylate] | 276 | 106
20 | CCOC(=O)c1c(C)[nH]c2c(=O)n(C)cc(C#CC(O)(c3ccccc3)C(F)(F)F)c12 (centres unmarked) [Example 73, ethyl 2,6-dimethyl-7-oxo-4-(4,4,4-trifluoro-3-hydroxy-3-phenyl-but-1-ynyl)-1H-pyrrolo[2,3-c]pyridine-3-carboxylate] | 287 | 69.5
21 | CCCCC(C)(C)OC(=O)c1c(C)[nH]c2c(=O)n(C)cc(C#CC(C)(O)C3CC3)c12 (centres unmarked) [Example 137, 1,1-dimethylpentyl 4-(3-cyclopropyl-3-hydroxy-but-1-ynyl)-2,6-dimethyl-7-oxo-1H-pyrrolo[2,3-c]pyridine-3-carboxylate] | 481 | 79
22 | CCOC(=O)c1c(C)[nH]c2c(=O)n(C)cc(C#CC(C)(C)C(N)=O)c12 [Example 37, ethyl 4-(4-amino-3,3-dimethyl-4-oxo-but-1-ynyl)-2,6-dimethyl-7-oxo-1H-pyrrolo[2,3-c]pyridine-3-carboxylate] | 382 | 221
23 | CCOC(=O)c1c(C)[nH]c2c(=O)n(C)cc(C#CC(O)(c3cccc(-c4ccccc4OC)c3)C(F)(F)F)c12 (centres unmarked) [Example 101, ethyl 2,6-dimethyl-7-oxo-4-[4,4,4-trifluoro-3-hydroxy-3-[3-(2-methoxyphenyl)phenyl]but-1-ynyl]-1H-pyrrolo[2,3-c]pyridine-3-carboxylate] | 4330 | 608
24 | CCOC(=O)c1c(C)[nH]c2c(=O)n(C)cc(C#Cc3ccccc3)c12 [Example 55, ethyl 2,6-dimethyl-7-oxo-4-(2-phenylethynyl)-1H-pyrrolo[2,3-c]pyridine-3-carboxylate] | 457 | 74
25 | CCOC(=O)c1c(C)[nH]c2c(=O)n(C)cc(C#CC(C)(C)O)c12 [Example 78, ethyl 4-(3-hydroxy-3-methyl-but-1-ynyl)-2,6-dimethyl-7-oxo-1H-pyrrolo[2,3-c]pyridine-3-carboxylate] | 616 | 38.5
